The record followed here is patent US20060160070A1, “Association-based epitome design” (Microsoft Corporation, priority 2004, published 2006).

Experiment [1] addresses T1, HLA A*0301 (Homo sapiens, UniProt P04439).
T1 construct: purchased
Nature of the experiment: ITOPIA peptide binding assay. Conditions: 1.11×10^−4M of peptide. The method, then: (§1) Peptide binding, off-rate and affinity were measured according to the protocols described in the ITOPIA Epitope Discovery System Customer Guide. To conduct the experiments, ninety-six (96) micro-titer plates coated with MHC molecules representing the HLA alleles listed in Table 9 were used to identify candidate peptides. Determinations were performed in duplicate using an ELISA plate reader. The peptide binding assay used measures the ability of individual peptides to bind to the HLA molecules under standardized optimal binding conditions. The assay was performed for all the test peptides across the selected HLA alleles. The test peptides identified as “binders” were characterized further in terms of affinity and dissociation experiments. The off-rate assay used evaluates the dissociation of previously bound peptide at defined time points (expressed as the t1/2 value). The affinity assay used measures the relative binding affinities for the MHC molecules determined by incubating candidate peptides identified in the initial peptide binding assay at increasing concentrations (expressed as quantity of peptide needed to achieve 50% binding or ED50 value).
(§2) The binding of the test peptides (Table 8) to the HLA molecules (Table 9) was performed at a concentration of 1.11×10^−4M of peptide under optimal, standardized test conditions. A control peptide was run in parallel on the same plate and at the same concentration as the test peptides. […] The level of binding is expressed as a percent of positive control peptide binding for each allele.

Experiment [2] has as its target T2, HLA B*0801 (Homo sapiens, UniProt P01889, A93T/A95T/D138N/E176V/E187T/K202T/Q94N/R180D/S35A/V36M/Y33D/Y91F).
T2 construct: purchased
Nature of the experiment: ITOPIA peptide binding assay. Conditions: 1.11×10^−4M of peptide. The procedure:
as §1, §2

Experiment [3] deals with T3, HLA B*0702 (Homo sapiens, UniProt P01889).
T3 construct: purchased
Nature of the experiment: ITOPIA peptide binding assay. The following applies: 1.11×10^−4M of peptide. The procedure:
as §1, §2

In experiment [4] the target is T4, HLA A*2402 (Homo sapiens, UniProt P04439, D101N/D140Y/D185E/E176V/E190D/F33S/G103R/G107R/I119L/I121M/I306V/K335N/L105A/L180Q/L300P/N151K/N90K/Q86E/Q94H/R106L/R138H/R89G/T104I/T345S/V100E/W191G/Y123F). In words: ITOPIA peptide binding assay. The following applies: 1.11×10^−4M of peptide. The method, then: as §1, §2
For experiment [5], the target named is T5, HLA B*1501 (Homo sapiens, UniProt P01889, A329T/A93T/A95T/C349S/D201E/D98Y/E187L/E204Q/E69M/E70A/K202T/N87E/Q94N/R155S/R180W/S121R/S35A/S48A/V306I/V36M/Y140S/Y91S).
T5 construct: purchased
Nature of the experiment: ITOPIA peptide binding assay. Conditions: 1.11×10^−4M of peptide. The procedure: as §1, §2

Experiment [6] deals with T6, HLA A*1101 (Homo sapiens, UniProt P04439, A114D/D185E/E176A/F33Y/L180Q/S129P/T187R).
T6 construct: purchased
Nature of the experiment: ITOPIA peptide binding assay. Conditions: 1.11×10^−4M of peptide. The method, then: as §1, §2

In experiment [7] the target is T7, HLA A*0201 (Homo sapiens, UniProt P04439, D140Y/D185E/D98H/E176V/E277Q/G131W/G231S/I119V/I121R/I166T/I218V/L300P/L318F/N151K/N90K/P208A/P217A/Q86G/Q94H/R138H/R169H/T345S). In words: ITOPIA peptide binding assay. Conditions: 1.11×10^−4M of peptide. The method, then:
as §1, §2

Experiment [8] deals with T8, HLA A*0101 (Homo sapiens, UniProt P04439, A114D/A174V/A182V/D101N/D185E/E176A/E190D/L180R/Q94H/R68K/S129P/T187R/V100A/V91M/W191G).
T8 construct: purchased
In words: ITOPIA peptide binding assay. The following applies: 1.11×10^−4M of peptide. The procedure:
as §1, §2

The target in experiment [9] is T4, HLA A*2402. In words: ITOPIA off-rate assay. It counts as binding. The following applies: 37° C., one-phase exponential decay. The method, then:
as §1
(§3) The peptides initially identified as binders were evaluated for stability based on their ability to remain bound to MHC molecules at 37° C. at time points 0, 0.5, 1, 1.5, 2, 4, 6 and 8 hours. […] The values obtained for each time point (in duplicate) are expressed (Table 11) as a percentage of the positive control. To calculate the t1/2 and goodness-of-fit, as measured by r^2, for each peptide, a one-phase exponential decay curve, with a plateau given equal to 0, was generated using […] PRISM software.

Experiment [10] concerns the target T5, HLA B*1501. Nature of the experiment: ITOPIA off-rate assay. It counts as binding. Conditions: 37° C., one-phase exponential decay. The method, then: as §1, §3
Experiment [11] deals with T7, HLA A*0201. In words: ITOPIA off-rate assay. The following applies: 37° C., one-phase exponential decay. It counts as binding. The method, then:
as §1, §3

The target in experiment [12] is T1, HLA A*0301. Nature of the experiment: Multi-parametric analysis iScore. It counts as binding. Details: scale not given here. Conditions: index integrating t1/2 and ED50. The method, then: (§4) Multi-parametric analysis was performed to integrate the half-life (t½) and ED50 parameters in an index (iScore). The iScore (Table 13) reflects the capability of a peptide to reconstitute with MHC molecules in a stable complex, defining its overall level of binding.

Experiment [13] addresses T2, HLA B*0801. Nature of the experiment: Multi-parametric analysis iScore. Type of experiment: binding. Conditions: index integrating t1/2 and ED50. Details: scale not given here. The procedure:
as §4

In experiment [14] the target is T3, HLA B*0702. Nature of the experiment: Multi-parametric analysis iScore. It counts as binding. The following applies: index integrating t1/2 and ED50. Details: scale not given here. The method, then: as §4
Experiment [15] concerns the target T4, HLA A*2402. In words: Multi-parametric analysis iScore. The following applies: index integrating t1/2 and ED50. Type of experiment: binding. Details: scale not given here. The method, then:
as §4

Experiment [16] deals with T5, HLA B*1501. Nature of the experiment: Multi-parametric analysis iScore. Type of experiment: binding. Details: scale not given here. Conditions: index integrating t1/2 and ED50. The method, then:
as §4

The target of experiment [17] is T6, HLA A*1101. In words: Multi-parametric analysis iScore. Type of experiment: binding. Details: scale not given here. The following applies: index integrating t1/2 and ED50. The procedure: as §4
Experiment [18] concerns the target T7, HLA A*0201. Nature of the experiment: Multi-parametric analysis iScore. It counts as binding. Details: scale not given here. Conditions: index integrating t1/2 and ED50. The method, then: as §4
Experiment [19] addresses T8, HLA A*0101. Nature of the experiment: Multi-parametric analysis iScore. Type of experiment: binding. Details: scale not given here. Conditions: index integrating t1/2 and ED50. The method, then:
as §4

In the case of CSSNITGLI [compound 154], the “level of binding, percent of positive control peptide binding” value on HLA A*0301 [1] is 0% of positive control; at HLA B*0801 [2] it was 6% of positive control; on HLA B*0702 [3], 5% of positive control; on HLA A*2402 [4], 29% of positive control; at HLA B*1501 [5], 40% of positive control; on HLA A*1101 [6], 1% of positive control. In addition, the “level of binding, percent of positive control peptide binding” value at HLA A*0201 [7] is given as 44% of positive control; at HLA A*0101 [8], 5% of positive control. The “A*2402 t1/2” value at HLA A*2402 [9] came out at 1.5 h. For the same sequence, the “B*1501 t1/2” value on HLA B*1501 [10] stood at 3.8 h. Further, the “A*0201 t1/2” value at HLA A*0201 [11] came out at 0.4 h. The iScore on HLA A*0301 [12] was found to be 0; on HLA B*0801 [13], 0; on HLA B*0702 [14], 0; on HLA A*2402 [15] it was 0.038; at HLA B*1501 [16] it was 0.112; on HLA A*1101 [17], 0. For the same sequence, the iScore at HLA A*0201 [18] is on record as 0.114; at HLA A*0101 [19] it was 0.

With CSSNITGLL [compound 69], the “level of binding, percent of positive control peptide binding” value is listed as 0% of positive control on HLA A*0301 [1]; 4% of positive control at HLA B*0801 [2]; 5% of positive control at HLA B*0702 [3]; 26% of positive control at HLA A*2402 [4]; 30% of positive control on HLA B*1501 [5]; 1% of positive control on HLA A*1101 [6]. Further, the “level of binding, percent of positive control peptide binding” value is recorded as 37% of positive control on HLA A*0201 [7] and 4% of positive control at HLA A*0101 [8]. For the same sequence, the “A*2402 t1/2” value at HLA A*2402 [9] was 1.1 h. For the same sequence, the “B*1501 t1/2” value on HLA B*1501 [10] is 3.1 h. Moreover, the “A*0201 t1/2” value at HLA A*0201 [11] is 0.3 h. In addition, the iScore at HLA A*0301 [12] amounted to 0; on HLA B*0801 [13], 0; at HLA B*0702 [14], 0; at HLA A*2402 [15] it was 0.016; on HLA B*1501 [16], 0.067; at HLA A*1101 [17], 0. Also, the iScore is 0.081 at HLA A*0201 [18] and 0 at HLA A*0101 [19].

Regarding YNEWTLELL [compound 22], the “level of binding, percent of positive control peptide binding” value is 0% of positive control on HLA A*0301 [1]; 3% of positive control at HLA B*0801 [2]; 2% of positive control on HLA B*0702 [3]; 35% of positive control on HLA A*2402 [4]; 0% of positive control on HLA B*1501 [5]; 1% of positive control at HLA A*1101 [6]. The entries for the “level of binding, percent of positive control peptide binding” value at HLA A*0201 [7] and at HLA A*0101 [8] were 7% of positive control and 0% of positive control, respectively. Moreover, the “A*2402 t1/2” value at HLA A*2402 [9] came out at 1.5 h. Further, the iScore at HLA A*0301 [12] is 0; at HLA B*0801 [13] it was 0; on HLA B*0702 [14] it was 0; at HLA A*2402 [15] it was 0.071; on HLA B*1501 [16] it was 0; on HLA A*1101 [17], 0. For the same sequence, the iScore on HLA A*0201 [18] and on HLA A*0101 [19] was 0 each time.

Take ALFYKLDVI [compound 158]: the “level of binding, percent of positive control peptide binding” value on HLA A*0301 [1] was 14% of positive control; on HLA B*0801 [2], 5% of positive control; at HLA B*0702 [3], 3% of positive control; at HLA A*2402 [4] it was 99% of positive control; at HLA B*1501 [5] it was 3% of positive control; at HLA A*1101 [6] it was 1% of positive control. Further, the “level of binding, percent of positive control peptide binding” value on HLA A*0201 [7] is 62% of positive control; at HLA A*0101 [8], 1% of positive control. Also, on HLA A*2402 [9], the “A*2402 t1/2” value amounted to 1.1 h. Further, the “A*0201 t1/2” value at HLA A*0201 [11] came to 5.5 h. The iScore on HLA A*0301 [12] was 0; on HLA B*0801 [13], 0; at HLA B*0702 [14], 0; on HLA A*2402 [15], 0.339; on HLA B*1501 [16], 0; at HLA A*1101 [17], 0. In addition, the results for the iScore at HLA A*0201 [18] and at HLA A*0101 [19] were 0.460 and 0, respectively.
